# Test results taken from ChEMBL document CHEMBL1201862, “PubChem BioAssay data set” (2004).
#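 The compound was tested at five concentrations on cells cultured in 96-well plates, with a 48-hour exposure period. GI50: concentration for 50% inhibition of growth.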 The source made the active and inactive calls. Cut-off read from the data, not from the text of the source: active = GI50 up to about 1.1 µM and inactive = higher.
# Key:
# Test in all cases: DTP human tumour cell line panel, 48 h
# [1] = tested on: 786-0
# [2] = tested on: DMS-114
# [3] = tested on: KM12
# [4] = tested on: OVCAR-8
# [5] = tested on: OVCAR-5
# [6] = tested on: UACC-257
# [7] = tested on: CCRF-CEM
# [8] = tested on: NCI-H522
# [9] = tested on: RPMI-8226
# [10] = tested on: MOLT-4
# [11] = tested on: EKVX
# [12] = tested on: SNB-75
# [13] = tested on: KM-20L2
# [14] = tested on: HL-60
# [15] = tested on: SF-539
# [16] = tested on: HT-29
# [17] = tested on: XF498
# [18] = tested on: UACC-62
# [19] = tested on: K562
# [20] = tested on: U-251
# [21] = tested on: RXF 631
# [22] = tested on: HOP-62
# [23] = tested on: SF-268
# [24] = tested on: RXF 393
# [25] = tested on: NCI-H226
# [26] = tested on: Malme-3M
# [27] = tested on: HCT-15
# [28] = tested on: M19-MEL
# [29] = tested on: SNB-78
# [30] = tested on: M14
# [31] = tested on: SK-OV-3
# [32] = tested on: OVCAR-3
# [33] = tested on: TK-10
# [34] = tested on: A549
# [35] = tested on: ACHN
# [36] = tested on: DMS-273
# [37] = tested on: LOX IMVI
# [38] = tested on: HOP-92
# [39] = tested on: SN12C
# [40] = tested on: NCI-H460
# [41] = tested on: SNB-19
# [42] = tested on: HCT-116
# [43] = tested on: SF-295
# [44] = tested on: SK-MEL-28
# [45] = tested on: CAKI-1
# [46] = tested on: UO-31
# [47] = tested on: SK-MEL-5
# [48] = tested on: LXFL 529
# [49] = tested on: COLO 205
# [50] = tested on: SW-620
# [51] = tested on: SK-MEL-2
# [52] = tested on: IGROV-1
# [53] = tested on: DLD-1
# [54] = tested on: HCC 2998
# [55] = tested on: OVCAR-4
# [56] = tested on: NCI-H23
# [57] = tested on: HOP-18
# [58] = tested on: SR
# [59] = tested on: A498
structure (smiles),measurement,setting,value
OCC(O)C(O)c1nn(-c2ccccc2)c2nc3cc(Cl)c(Cl)cc3nc12 (centres undefined),GI50,[1],18.8 µM (inactive)
same,GI50,[2],21 µM (inactive)
same,GI50,[3],20.8 µM (inactive)
same,GI50,[4],20.4 µM (inactive)
same,GI50,[5],14.8 µM (inactive)
same,GI50,[6],36.7 µM (inactive)
same,GI50,[7],35.2 µM (inactive)
same,GI50,[8],26.1 µM (inactive)
same,GI50,[9],8.93 µM (inactive)
same,GI50,[10],13.7 µM (inactive)
same,GI50,[11],26.2 µM (inactive)
same,GI50,[12],21.8 µM (inactive)
same,GI50,[13],26.7 µM (inactive)
same,GI50,[14],18.2 µM (inactive)
same,GI50,[15],24 µM (inactive)
same,GI50,[16],21.9 µM (inactive)
same,GI50,[17],28.5 µM (inactive)
same,GI50,[18],29.4 µM (inactive)
same,GI50,[19],13.3 µM (inactive)
same,GI50,[20],29.1 µM (inactive)
same,GI50,[21],18.9 µM (inactive)
same,GI50,[22],47.5 µM (inactive)
same,GI50,[23],21.4 µM (inactive)
same,GI50,[24],21.2 µM (inactive)
same,GI50,[25],21.4 µM (inactive)
same,GI50,[26],17.2 µM (inactive)
same,GI50,[27],23.6 µM
same,GI50,[28],28.8 µM (inactive)
same,GI50,[29],50.2 µM (inactive)
same,GI50,[30],27.9 µM (inactive)
same,GI50,[31],30.6 µM (inactive)
same,GI50,[32],27.4 µM (inactive)
same,GI50,[33],16.7 µM (inactive)
same,GI50,[34],15.6 µM (inactive)
same,GI50,[35],19.5 µM (inactive)
same,GI50,[36],15.7 µM (inactive)
same,GI50,[37],19.5 µM (inactive)
same,GI50,[38],35.7 µM (inactive)
same,GI50,[39],63.5 µM (inactive)
same,GI50,[40],27.7 µM (inactive)
same,GI50,[41],48.2 µM (inactive)
same,GI50,[42],16.8 µM (inactive)
same,GI50,[43],31.4 µM (inactive)
same,GI50,[44],41.3 µM (inactive)
same,GI50,[45],16.6 µM (inactive)
same,GI50,[46],5.98 µM (inactive)
same,GI50,[47],26.4 µM (inactive)
same,GI50,[48],20.6 µM (inactive)
same,GI50,[49],24.7 µM (inactive)
same,GI50,[50],28.6 µM (inactive)
same,GI50,[51],22.3 µM (inactive)
same,GI50,[52],24.6 µM (inactive)
same,GI50,[53],26.1 µM (inactive)
same,GI50,[54],31.9 µM (inactive)
same,GI50,[55],24.7 µM (inactive)
same,GI50,[56],41.5 µM (inactive)
same,GI50,[57],26.7 µM (inactive)
Cc1ccccc1C(=O)c1cc(O)ccc1O,GI50,[1],> 100 µM (inactive)
same,GI50,[2],45.7 µM (inactive)
same,GI50,[3],43 µM (inactive)
same,GI50,[4],> 100 µM (inactive)
same,GI50,[5],> 100 µM (inactive)
same,GI50,[6],> 100 µM (inactive)
same,GI50,[58],78 µM (inactive)
same,GI50,[7],> 100 µM (inactive)
same,GI50,[8],27.2 µM (inactive)
same,GI50,[9],> 100 µM (inactive)
same,GI50,[10],> 100 µM (inactive)
same,GI50,[11],> 100 µM (inactive)
same,GI50,[12],76.2 µM (inactive)
same,GI50,[13],32.6 µM (inactive)
same,GI50,[14],31.8 µM (inactive)
same,GI50,[15],> 100 µM (inactive)
same,GI50,[16],35.9 µM (inactive)
same,GI50,[17],> 100 µM (inactive)
same,GI50,[18],65 µM (inactive)
same,GI50,[19],35 µM (inactive)
same,GI50,[20],50.7 µM (inactive)
same,GI50,[21],> 100 µM (inactive)
same,GI50,[22],> 100 µM (inactive)
same,GI50,[23],> 100 µM (inactive)
same,GI50,[24],> 100 µM (inactive)
same,GI50,[25],> 100 µM (inactive)
same,GI50,[26],> 100 µM (inactive)
same,GI50,[27],50.1 µM
same,GI50,[59],> 100 µM (inactive)
same,GI50,[28],> 100 µM (inactive)
same,GI50,[29],> 100 µM (inactive)
same,GI50,[30],> 100 µM (inactive)
same,GI50,[31],> 100 µM (inactive)
same,GI50,[32],> 100 µM (inactive)
same,GI50,[33],> 100 µM (inactive)
same,GI50,[34],> 100 µM (inactive)
same,GI50,[35],> 100 µM (inactive)
same,GI50,[36],42.3 µM (inactive)
same,GI50,[38],> 100 µM (inactive)
same,GI50,[39],> 100 µM (inactive)
same,GI50,[40],85.9 µM (inactive)
same,GI50,[41],> 100 µM (inactive)
same,GI50,[42],> 100 µM (inactive)
same,GI50,[43],> 100 µM (inactive)
same,GI50,[45],> 100 µM (inactive)
same,GI50,[46],> 100 µM (inactive)
same,GI50,[47],> 100 µM (inactive)
same,GI50,[48],> 100 µM (inactive)
same,GI50,[49],50.6 µM (inactive)
same,GI50,[50],37.1 µM (inactive)
same,GI50,[51],34.6 µM (inactive)
same,GI50,[52],99.5 µM (inactive)
same,GI50,[53],55.7 µM (inactive)
same,GI50,[54],53.8 µM (inactive)
same,GI50,[55],> 100 µM (inactive)
same,GI50,[56],65 µM (inactive)
same,GI50,[57],> 100 µM (inactive)
